Measured values reported in ChEMBL document CHEMBL3286313 (J Med Chem, 2014).
Values joined by “and” are separate entries in the source; they are usually repeats but may differ in a detail not shown here. Identical values can stand only once. Active and inactive are the calls of the source. No cut-off for these calls is given here.

Experiments:
[1] = biological target: D(1A) dopamine receptor (Homo sapiens, UniProt P21728); assay: biochemical; type: cell-based, HEK293
[2] = biological target: T1, D(2) dopamine receptor (Homo sapiens, UniProt P14416); assay: biochemical; type: cell-based, CHO
T1 sequence (P14416 whole entry): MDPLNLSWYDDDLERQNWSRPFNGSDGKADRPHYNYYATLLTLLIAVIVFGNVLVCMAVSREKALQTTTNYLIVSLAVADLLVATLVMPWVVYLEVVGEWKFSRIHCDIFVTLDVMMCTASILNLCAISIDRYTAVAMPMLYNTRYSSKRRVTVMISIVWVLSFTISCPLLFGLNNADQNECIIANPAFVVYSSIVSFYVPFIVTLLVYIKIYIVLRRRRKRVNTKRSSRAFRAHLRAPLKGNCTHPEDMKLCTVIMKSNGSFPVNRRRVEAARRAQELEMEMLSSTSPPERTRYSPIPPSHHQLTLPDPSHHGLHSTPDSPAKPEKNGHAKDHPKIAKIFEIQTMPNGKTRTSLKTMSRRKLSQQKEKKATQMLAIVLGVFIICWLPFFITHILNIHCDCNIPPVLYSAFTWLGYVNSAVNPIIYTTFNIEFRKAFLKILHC

[3] = biological target: 5-hydroxytryptamine receptor 2A (Homo sapiens, UniProt P28223); assay: biochemical; type: cell-based, HEK293
Chain of 5-hydroxytryptamine receptor 2A (P28223 whole entry): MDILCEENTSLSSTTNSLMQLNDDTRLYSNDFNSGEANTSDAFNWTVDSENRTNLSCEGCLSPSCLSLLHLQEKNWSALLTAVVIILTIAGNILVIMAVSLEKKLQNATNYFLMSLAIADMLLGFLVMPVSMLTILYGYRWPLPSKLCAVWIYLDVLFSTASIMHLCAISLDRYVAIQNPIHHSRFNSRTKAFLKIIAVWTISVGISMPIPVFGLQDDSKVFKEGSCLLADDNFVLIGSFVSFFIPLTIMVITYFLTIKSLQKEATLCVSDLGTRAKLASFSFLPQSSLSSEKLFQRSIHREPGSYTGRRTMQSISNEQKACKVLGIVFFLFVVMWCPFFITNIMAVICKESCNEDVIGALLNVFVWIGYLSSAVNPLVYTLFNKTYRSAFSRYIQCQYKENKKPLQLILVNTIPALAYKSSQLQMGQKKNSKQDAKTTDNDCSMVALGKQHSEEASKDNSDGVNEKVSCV

[4] = biological target: T1, D(2) dopamine receptor; assay: biochemical; type: cell-based, CHO; remark: listed apart in the source
[5] = biological target: T2, D(4) dopamine receptor (Homo sapiens, UniProt P21917); assay: biochemical; type: cell-based, CHO
T2 sequence (P21917 whole entry): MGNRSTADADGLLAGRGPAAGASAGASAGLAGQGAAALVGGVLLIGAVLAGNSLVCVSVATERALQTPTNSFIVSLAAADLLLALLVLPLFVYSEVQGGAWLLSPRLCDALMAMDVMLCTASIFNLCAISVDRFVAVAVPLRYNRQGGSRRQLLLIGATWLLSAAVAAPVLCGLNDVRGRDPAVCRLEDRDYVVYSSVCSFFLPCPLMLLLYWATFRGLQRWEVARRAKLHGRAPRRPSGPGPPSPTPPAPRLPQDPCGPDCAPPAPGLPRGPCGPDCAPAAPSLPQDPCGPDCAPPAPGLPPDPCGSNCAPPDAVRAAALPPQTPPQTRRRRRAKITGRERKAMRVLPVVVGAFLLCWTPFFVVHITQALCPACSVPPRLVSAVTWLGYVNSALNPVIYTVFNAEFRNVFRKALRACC

[6] = biological target: T1, D(2) dopamine receptor
[7] = biological target: T3, D(3) dopamine receptor (Homo sapiens, UniProt P35462); type: functional, cell-based, HEK293
T3 sequence (P35462 whole entry): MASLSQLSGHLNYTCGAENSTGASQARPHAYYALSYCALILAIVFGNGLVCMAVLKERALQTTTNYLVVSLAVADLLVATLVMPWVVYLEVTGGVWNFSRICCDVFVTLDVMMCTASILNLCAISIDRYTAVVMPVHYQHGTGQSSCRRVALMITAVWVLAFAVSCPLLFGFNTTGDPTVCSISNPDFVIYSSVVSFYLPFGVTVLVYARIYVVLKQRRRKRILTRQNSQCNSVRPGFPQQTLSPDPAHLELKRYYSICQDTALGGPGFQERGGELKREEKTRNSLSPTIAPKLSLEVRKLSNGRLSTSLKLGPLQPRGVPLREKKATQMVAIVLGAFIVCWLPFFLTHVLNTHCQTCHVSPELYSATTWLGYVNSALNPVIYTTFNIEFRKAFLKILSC

[8] = biological target: T3, D(3) dopamine receptor; assay: biochemical; type: cell-based, CHO
[9] = biological target: T1, D(2) dopamine receptor; remark: listed apart in the source
[10] = system: Mus musculus; assay: CNS activity in C57Bl/6J mouse assessed as auditory startle response at 3 mg/kg, ip measured after 15 mins; type: functional, organism-based; design: dose 3 mg/kg

Chain of D(1A) dopamine receptor (P21728 whole entry): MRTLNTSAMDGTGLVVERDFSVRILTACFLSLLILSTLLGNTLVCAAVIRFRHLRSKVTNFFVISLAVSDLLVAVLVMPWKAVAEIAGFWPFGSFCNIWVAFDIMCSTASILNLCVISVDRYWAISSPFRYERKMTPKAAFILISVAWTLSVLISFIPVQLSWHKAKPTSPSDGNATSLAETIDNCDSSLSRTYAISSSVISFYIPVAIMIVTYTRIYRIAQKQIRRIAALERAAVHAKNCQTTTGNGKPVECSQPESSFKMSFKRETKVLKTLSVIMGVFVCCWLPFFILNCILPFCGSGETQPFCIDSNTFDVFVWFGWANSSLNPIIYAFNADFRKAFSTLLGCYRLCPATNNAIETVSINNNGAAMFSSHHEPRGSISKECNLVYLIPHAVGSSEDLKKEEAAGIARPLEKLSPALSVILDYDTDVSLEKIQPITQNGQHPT

| SMILES | Ki [1] | Ki [2] | Ki [3] | Ki [4] | Ki [5] | EC50 [6] | EC50 [7] | Ki [8] | IC50 [9] | Activity [10] |
| --- | --- | --- | --- | --- | --- | --- | --- | --- | --- | --- |
| N#Cc1cc2cc(OCCCCN3CCN(c4cccc(Cl)c4Cl)CC3)ccn2n1 | 3500 nM | 8.9 nM | 81 nM | 6.7 nM | 9.3 nM | 98 nM | 41 nM | 1.9 nM | – | – |
| Clc1cccc(N2CCN(CCCCOc3ccn4nccc4c3)CC2)c1Cl | – | 34 nM | – | 39 nM | 130 nM | 180 nM | 66 nM | 7 nM | – | – |
| O/N=C/c1cnn2ccc(OCCCCN3CCN(c4cccc(Cl)c4Cl)CC3)cc12 (stereo in doubt; 8b) | 670 nM | 0.17 nM | 4 nM | 0.25 nM | 6 nM | 240 nM | 39 nM | 0.69 nM | 3.8 nM | – |
| O=Cc1cnn2cc(OCCCCN3CCN(c4cccc(Cl)c4Cl)CC3)ccc12 | – | 6.2 nM | – | 8.1 nM | 18 nM | 340 nM | 110 nM | 2 nM | – | – |
| O=Cc1c(OCCCCN2CCN(c3cccc(Cl)c3Cl)CC2)nn2ccccc12 | – | 10 nM | – | 14 nM | 29 nM | – | – | 5.9 nM | – | – |
| O/N=C/c1cnn2ccc(OCCCCN3CCN(c4cccc(Cl)c4Cl)CC3)cc12 (stereo in doubt; 8a) | 4300 nM | 1.8 nM | 7.7 nM | 1.7 nM | 5.3 nM | 270 nM | 42 nM | 2.3 nM | – | – |
| CCOC(=O)c1cc2cc(OCCCCN3CCN(c4cccc(Cl)c4Cl)CC3)ccn2n1 | 150 nM | 7.4 nM | 22 nM | 6.7 nM | 47 nM | 440 nM | 57 nM | 2.1 nM | – | – |
| O=Cc1cnn2c(OCCCCN3CCN(c4cccc(Cl)c4Cl)CC3)cccc12 | – | 51 nM | – | 15 nM | 78 nM | – | – | 6.4 nM | – | – |
| Clc1cccc(N2CCN(CCCCOc3cccc4ccnn34)CC2)c1Cl | – | 64 nM | – | 16 nM | 16 nM | – | – | 7.2 nM | – | – |
| O=Cc1cc2cc(OCCCCN3CCN(c4cccc(Cl)c4Cl)CC3)ccn2n1 | 180 nM | 14 nM | 56 nM | 14 nM | 89 nM | – | 5 nM | 6 nM | 28.8 nM and 22 nM | – |
| O=Cc1cnn2ccc(OCCCCN3CCN(c4cccc(Cl)c4Cl)CC3)cc12 | 970 nM | 4.6 nM | 240 nM | 3.2 nM | 57 nM | 650 nM | 1.9 nM | 6.9 nM | 360 nM | Active |
| Clc1cccc(N2CCN(CCCCOc3ccc4ccnn4c3)CC2)c1Cl | – | 4.2 nM | – | 2.1 nM | 4.4 nM | 1300 nM | 41 nM | 2.3 nM | – | – |
| Clc1cccc(N2CCN(CCCCOc3cccn4nccc34)CC2)c1Cl | – | 25 nM | – | 30 nM | 16 nM | – | – | 10 nM | – | – |
| O=Cc1cnn2cccc(OCCCCN3CCN(c4cccc(Cl)c4Cl)CC3)c12 | – | 29 nM | – | 24 nM | 41 nM | – | – | 20 nM | – | – |
| O/N=C/c1cc2cc(OCCCCN3CCN(c4cccc(Cl)c4Cl)CC3)ccn2n1 | 260 nM | 3.3 nM | 7.9 nM | 2.3 nM | 24 nM | – | 15 nM | 0.86 nM | – | – |
| N#Cc1cnn2ccc(OCCCCN3CCN(c4cccc(Cl)c4Cl)CC3)cc12 | 930 nM | 0.58 nM | 490 nM | 0.32 nM | 5.7 nM | 110 nM | 12 nM | 1.5 nM | – | – |
| OCc1cc2cc(OCCCCN3CCN(c4cccc(Cl)c4Cl)CC3)ccn2n1 | 240 nM | 3.1 nM | 16 nM | 2.3 nM | 35 nM | 540 nM | 5.9 nM | 1.3 nM | – | – |
